# US20230085307A1, “PYRIDAZINONE COMPOUND AND HERBICIDE” (NISSAN CHEMICAL CORPORATION, priority 2019, published 2023)
# Key:
# chickweed = test: Test Example 4: herbicidal effect by soil treatment (Table 19, symbol P); type: in vivo, common chickweed (Stellaria media); conditions: 320 g/ha
# In short: (§1)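 Step 1: sow seeds in sterilized diluvial soil, cover ~1.5 cm. Step 2: spray diluted emulsion onto soil surface at predetermined rate. Step 3: greenhouse, 25–30° C, three weeks. Step 4: grade effect on each plant by earlier criteria.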
# green foxtail = test: Test Example 4: herbicidal effect by soil treatment (Table 19, symbol G); type: in vivo, green foxtail (Setaria viridis); conditions: 320 g/ha
# In short: as §1
# velvetleaf = test: Test Example 4: herbicidal effect by soil treatment (Table 19, symbol M); type: in vivo, velvetleaf (Abutilon theophrasti); conditions: 320 g/ha
# In short: as §1
# Chinese sprangletop = test: Test Example 3: herbicidal effect by foliage application, Wagner pot (Table 18, symbol D); type: in vivo, chinese sprangletop (Leptochloa chinensis); conditions: 320 g/ha
# In short: (§2)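 Plants were sown in alluvial soil held under 0.1–0.5 cm standing water and grown 14 days in a greenhouse at 25–30 °C. An emulsifiable formulation, water-diluted to the set dose, was then sprayed onto the foliage, and effects were scored three weeks later using previously defined criteria.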
# blackgrass [1] = test: Test Example 5: herbicidal effect by foliage application, plastic box (Table 20, symbol J); type: in vivo, blackgrass (Alopecurus myosuroides); conditions: foliage application, 320 g/ha, 3 weeks after application
# In short: (§3)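 Foliar spray test: emulsion formulation diluted in water to a set application rate, sprayed onto 14-day-old plants raised in diluvial soil at 25° C to 30° C under glass. Both herbicidal effect and crop effect rated visually three weeks later.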
# southern crabgrass = test: Test Example 4: herbicidal effect by soil treatment (Table 19, symbol F); type: in vivo, southern crabgrass (Digitaria ciliaris); conditions: 320 g/ha
# In short: as §1
# barnyard grass [2] = test: Test Example 3: herbicidal effect by foliage application, Wagner pot (Table 18, symbol H); type: in vivo, barnyard grass (Echinochloa crus-galli); conditions: 320 g/ha
# In short: as §2
# late watergrass = test: Test Example 2: herbicidal activity, application during weed generation under submerged conditions (Table 17, symbol A); type: in vivo, late watergrass (Echinochloa oryzicola); conditions: AAH 320 g/ha; application during weed generation, submerged conditions
# In short: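 3-wk visual-criteria score after one water-surface dose. Emulsion formulation, water-diluted to set rate; applied at 1–2 leaf stage; alluvial soil, 4 cm standing water; seeds co-sown; greenhouse 25–30° C.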
# lambsquarters [3] = test: Test Example 4: herbicidal effect by soil treatment (Table 19, symbol O); type: in vivo, lambsquarters (Chenopodium album); conditions: 320 g/ha
# In short: as §1
# Italian ryegrass = test: Test Example 5: herbicidal effect by foliage application, plastic box (Table 20, symbol K); type: in vivo, Italian ryegrass (Lolium multiflorum); conditions: foliage application, 320 g/ha, 3 weeks after application
# In short: as §3
# blackgrass [4] = test: Test Example 4: herbicidal effect by soil treatment (Table 19, symbol J); type: in vivo, blackgrass (Alopecurus myosuroides); conditions: 320 g/ha
# In short: as §1
# wild oat = test: Test Example 5: herbicidal effect by foliage application, plastic box (Table 20, symbol I); type: in vivo, wild oat (Avena fatua); conditions: foliage application, 320 g/ha, 3 weeks after application
# In short: as §3
# barnyard grass [5] = test: Test Example 4: herbicidal effect by soil treatment (Table 19, symbol H); type: in vivo, barnyard grass (Echinochloa crus-galli); conditions: 320 g/ha
# In short: as §1
# Japanese bulrush = test: Test Example 1: herbicidal activity, application before weed generation under submerged conditions (Table 16, symbol B); type: in vivo, Japanese bulrush (Schoenoplectus juncoides); conditions: 320 g/ha applied herbicide
# In short: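 Submerged Wagner pots (alluvial soil, 4 cm water) sown with weed seeds and planted with 2.5-leaf rice seedlings; emulsifiable concentrate diluted in water applied to water surface on sowing day. Held in greenhouse at 25-30 °C; injury scored 0-5 by herbicidal rate after three weeks.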
# lambsquarters [6] = test: Test Example 5: herbicidal effect by foliage application, plastic box (Table 20, symbol O); type: in vivo, lambsquarters (Chenopodium album); conditions: foliage application, 320 g/ha, 3 weeks after application
# In short: as §3
# windgrass = test: Test Example 5: herbicidal effect by foliage application, plastic box (Table 20, symbol L); type: in vivo, windgrass (Apera spica-venti); conditions: foliage application, 320 g/ha, 3 weeks after application
# In short: as §3
# redroot pigweed = test: Test Example 4: herbicidal effect by soil treatment (Table 19, symbol N); type: in vivo, redroot pigweed (Amaranthus retroflexus); conditions: 320 g/ha
# In short: as §1
structure (smiles),measurement,setting,value
CCCC(=O)Oc1c(C)nn(C)c(=O)c1-c1c(-c2ccc(Cl)cc2)sc2ccc(F)cc12 [2-011],"herbicidal effect rating, P: chickweed",chickweed,2 (Herbicidal rate of 20% or more and less than 40%)
same,"herbicidal effect rating, G: green foxtail",green foxtail,2 (Herbicidal rate of 20% or more and less than 40%)
same,"herbicidal effect rating, M: velvetleaf",velvetleaf,3 (Herbicidal rate of 40% or more and less than 70%)
same,"herbicidal effect on D (Chinese sprangletop), rating 0-5",Chinese sprangletop,4 (Herbicidal rate of 70% or more and less than 90%)
same,effect on blackgrass (J),blackgrass [1],2 (Herbicidal rate of 20% or more and less than 40%)
same,"herbicidal effect rating, F: southern crabgrass",southern crabgrass,3 (Herbicidal rate of 40% or more and less than 70%)
same,"herbicidal effect on H (barnyard grass), rating 0-5",barnyard grass [2],5 (Herbicidal rate of 90% or more (almost completely withered))
same,"herbicidal effect rating, A: late watergrass",late watergrass,2 (Herbicidal rate of 20% or more and less than 40%)
same,"herbicidal effect rating, O: lambsquarters",lambsquarters [3],5 (Herbicidal rate of 90% or more (almost completely withered))
same,effect on Italian ryegrass (K),Italian ryegrass,5 (Herbicidal rate of 90% or more (almost completely withered))
same,"herbicidal effect rating, J: blackgrass",blackgrass [4],0 (Herbicidal rate of 5% or less (almost no effect))
same,effect on wild oat (I),wild oat,3 (Herbicidal rate of 40% or more and less than 70%)
same,"herbicidal effect rating, H: barnyard grass",barnyard grass [5],3 (Herbicidal rate of 40% or more and less than 70%)
same,Herbicidal effect on B: Japanese bulrush (grade 0-5),Japanese bulrush,3 (Herbicidal rate of 40% or more and less than 70%)
same,effect on lambsquarters (O),lambsquarters [6],5 (Herbicidal rate of 90% or more (almost completely withered))
same,effect on windgrass (L),windgrass,3 (Herbicidal rate of 40% or more and less than 70%)
same,"herbicidal effect rating, N: redroot pigweed",redroot pigweed,4 (Herbicidal rate of 70% or more and less than 90%)
CCCC(=O)Oc1c(C)nn(C)c(=O)c1-c1c(-c2ccc(CC)cc2)sc2ccc(F)cc12 [2-016],"herbicidal effect rating, P: chickweed",chickweed,1 (Herbicidal rate of 5% or more and less than 20%)
same,"herbicidal effect rating, G: green foxtail",green foxtail,0 (Herbicidal rate of 5% or less (almost no effect))
same,"herbicidal effect rating, M: velvetleaf",velvetleaf,3 (Herbicidal rate of 40% or more and less than 70%)
same,"herbicidal effect on D (Chinese sprangletop), rating 0-5",Chinese sprangletop,5 (Herbicidal rate of 90% or more (almost completely withered))
same,effect on blackgrass (J),blackgrass [1],1 (Herbicidal rate of 5% or more and less than 20%)
same,"herbicidal effect rating, F: southern crabgrass",southern crabgrass,0 (Herbicidal rate of 5% or less (almost no effect))
same,"herbicidal effect on H (barnyard grass), rating 0-5",barnyard grass [2],5 (Herbicidal rate of 90% or more (almost completely withered))
same,"herbicidal effect rating, A: late watergrass",late watergrass,3 (Herbicidal rate of 40% or more and less than 70%)
same,"herbicidal effect rating, O: lambsquarters",lambsquarters [3],5 (Herbicidal rate of 90% or more (almost completely withered))
same,effect on Italian ryegrass (K),Italian ryegrass,5 (Herbicidal rate of 90% or more (almost completely withered))
same,"herbicidal effect rating, J: blackgrass",blackgrass [4],2 (Herbicidal rate of 20% or more and less than 40%)
same,effect on wild oat (I),wild oat,3 (Herbicidal rate of 40% or more and less than 70%)
same,"herbicidal effect rating, H: barnyard grass",barnyard grass [5],1 (Herbicidal rate of 5% or more and less than 20%)
same,Herbicidal effect on B: Japanese bulrush (grade 0-5),Japanese bulrush,3 (Herbicidal rate of 40% or more and less than 70%)
same,effect on lambsquarters (O),lambsquarters [6],5 (Herbicidal rate of 90% or more (almost completely withered))
same,effect on windgrass (L),windgrass,5 (Herbicidal rate of 90% or more (almost completely withered))
same,"herbicidal effect rating, N: redroot pigweed",redroot pigweed,5 (Herbicidal rate of 90% or more (almost completely withered))
C=Cc1ccc(-c2sc3ccc(F)cc3c2-c2c(O)c(C)nn(C)c2=O)cc1 [2-018],"herbicidal effect rating, P: chickweed",chickweed,3 (Herbicidal rate of 40% or more and less than 70%)
same,"herbicidal effect rating, G: green foxtail",green foxtail,1 (Herbicidal rate of 5% or more and less than 20%)
same,"herbicidal effect rating, M: velvetleaf",velvetleaf,1 (Herbicidal rate of 5% or more and less than 20%)
same,"herbicidal effect on D (Chinese sprangletop), rating 0-5",Chinese sprangletop,4 (Herbicidal rate of 70% or more and less than 90%)
same,effect on blackgrass (J),blackgrass [1],1 (Herbicidal rate of 5% or more and less than 20%)
same,"herbicidal effect rating, F: southern crabgrass",southern crabgrass,0 (Herbicidal rate of 5% or less (almost no effect))
same,"herbicidal effect on H (barnyard grass), rating 0-5",barnyard grass [2],5 (Herbicidal rate of 90% or more (almost completely withered))
same,"herbicidal effect rating, A: late watergrass",late watergrass,3 (Herbicidal rate of 40% or more and less than 70%)
same,"herbicidal effect rating, O: lambsquarters",lambsquarters [3],4 (Herbicidal rate of 70% or more and less than 90%)
same,effect on Italian ryegrass (K),Italian ryegrass,4 (Herbicidal rate of 70% or more and less than 90%)
same,"herbicidal effect rating, J: blackgrass",blackgrass [4],0 (Herbicidal rate of 5% or less (almost no effect))
same,effect on wild oat (I),wild oat,5 (Herbicidal rate of 90% or more (almost completely withered))
same,"herbicidal effect rating, H: barnyard grass",barnyard grass [5],0 (Herbicidal rate of 5% or less (almost no effect))
same,Herbicidal effect on B: Japanese bulrush (grade 0-5),Japanese bulrush,3 (Herbicidal rate of 40% or more and less than 70%)
same,effect on lambsquarters (O),lambsquarters [6],5 (Herbicidal rate of 90% or more (almost completely withered))
same,effect on windgrass (L),windgrass,5 (Herbicidal rate of 90% or more (almost completely withered))
same,"herbicidal effect rating, N: redroot pigweed",redroot pigweed,4 (Herbicidal rate of 70% or more and less than 90%)
COCc1ccc(-c2sc3ccc(F)cc3c2-c2c(O)c(C)nn(C)c2=O)cc1 [2-022],"herbicidal effect rating, P: chickweed",chickweed,3 (Herbicidal rate of 40% or more and less than 70%)
same,"herbicidal effect rating, G: green foxtail",green foxtail,5 (Herbicidal rate of 90% or more (almost completely withered))
same,"herbicidal effect rating, M: velvetleaf",velvetleaf,4 (Herbicidal rate of 70% or more and less than 90%)
same,"herbicidal effect on D (Chinese sprangletop), rating 0-5",Chinese sprangletop,4 (Herbicidal rate of 70% or more and less than 90%)
same,effect on blackgrass (J),blackgrass [1],4 (Herbicidal rate of 70% or more and less than 90%)
same,"herbicidal effect rating, F: southern crabgrass",southern crabgrass,3 (Herbicidal rate of 40% or more and less than 70%)
same,"herbicidal effect on H (barnyard grass), rating 0-5",barnyard grass [2],5 (Herbicidal rate of 90% or more (almost completely withered))
same,"herbicidal effect rating, A: late watergrass",late watergrass,2 (Herbicidal rate of 20% or more and less than 40%)
same,"herbicidal effect rating, O: lambsquarters",lambsquarters [3],4 (Herbicidal rate of 70% or more and less than 90%)
same,effect on Italian ryegrass (K),Italian ryegrass,5 (Herbicidal rate of 90% or more (almost completely withered))
same,"herbicidal effect rating, J: blackgrass",blackgrass [4],4 (Herbicidal rate of 70% or more and less than 90%)
same,effect on wild oat (I),wild oat,3 (Herbicidal rate of 40% or more and less than 70%)
same,"herbicidal effect rating, H: barnyard grass",barnyard grass [5],5 (Herbicidal rate of 90% or more (almost completely withered))
same,Herbicidal effect on B: Japanese bulrush (grade 0-5),Japanese bulrush,5 (Herbicidal rate of 90% or more (almost completely withered))
same,effect on lambsquarters (O),lambsquarters [6],4 (Herbicidal rate of 70% or more and less than 90%)
same,effect on windgrass (L),windgrass,4 (Herbicidal rate of 70% or more and less than 90%)
same,"herbicidal effect rating, N: redroot pigweed",redroot pigweed,5 (Herbicidal rate of 90% or more (almost completely withered))
CCCC(=O)Oc1c(C)nn(C)c(=O)c1-c1c(-c2ccc(COC)cc2)sc2ccc(F)cc12 [2-023],"herbicidal effect rating, P: chickweed",chickweed,3 (Herbicidal rate of 40% or more and less than 70%)
same,"herbicidal effect rating, G: green foxtail",green foxtail,5 (Herbicidal rate of 90% or more (almost completely withered))
same,"herbicidal effect rating, M: velvetleaf",velvetleaf,2 (Herbicidal rate of 20% or more and less than 40%)
same,"herbicidal effect on D (Chinese sprangletop), rating 0-5",Chinese sprangletop,4 (Herbicidal rate of 70% or more and less than 90%)
same,effect on blackgrass (J),blackgrass [1],4 (Herbicidal rate of 70% or more and less than 90%)
same,"herbicidal effect rating, F: southern crabgrass",southern crabgrass,4 (Herbicidal rate of 70% or more and less than 90%)
same,"herbicidal effect on H (barnyard grass), rating 0-5",barnyard grass [2],5 (Herbicidal rate of 90% or more (almost completely withered))
same,"herbicidal effect rating, A: late watergrass",late watergrass,3 (Herbicidal rate of 40% or more and less than 70%)
same,"herbicidal effect rating, O: lambsquarters",lambsquarters [3],5 (Herbicidal rate of 90% or more (almost completely withered))
same,effect on Italian ryegrass (K),Italian ryegrass,4 (Herbicidal rate of 70% or more and less than 90%)
same,"herbicidal effect rating, J: blackgrass",blackgrass [4],3 (Herbicidal rate of 40% or more and less than 70%)
same,effect on wild oat (I),wild oat,0 (Herbicidal rate of 5% or less (almost no effect))
same,"herbicidal effect rating, H: barnyard grass",barnyard grass [5],4 (Herbicidal rate of 70% or more and less than 90%)
same,Herbicidal effect on B: Japanese bulrush (grade 0-5),Japanese bulrush,0 (Herbicidal rate of 5% or less (almost no effect))
same,effect on lambsquarters (O),lambsquarters [6],4 (Herbicidal rate of 70% or more and less than 90%)
same,effect on windgrass (L),windgrass,4 (Herbicidal rate of 70% or more and less than 90%)
same,"herbicidal effect rating, N: redroot pigweed",redroot pigweed,5 (Herbicidal rate of 90% or more (almost completely withered))
